What was measured:
Rattus norvegicus [1] = experiment: Anticonvulsant activity in Sprague-Dawley rat assessed as protection against maximal electroshock-induced convulsion at 30 mg/kg, sc administered 30 mins prior to application of shock via corneal electrodes relative to control; type: functional
Brain [2] = experiment: Fraction unbound in Sprague-Dawley rat brain at 1 mg/kg, po administered at 60 mins by LC-MS/MS analysis; type: ADME, organism-based; details: in vivo, 1 h
Plasma [3] = experiment: Unbound plasma concentration in Sprague-Dawley rat at 1 mg/kg, sc administered at 30 mins by LC-MS/MS analysis; type: ADME, organism-based; details: in vivo, 0.5 h
Brain [4] = experiment: Fraction unbound in Sprague-Dawley rat brain at 30 mg/kg, po administered at 60 mins by LC-MS/MS analysis; type: ADME, organism-based; details: in vivo, 1 h
[5] = Ratio of free drug level in plasma to brain in Sprague-Dawley rat at 10 mg/kg, po administration at 60 mins; type: ADME, organism-based; details: in vivo, 1 h
Rattus norvegicus [6] = experiment: Anticonvulsant activity in Sprague-Dawley rat assessed as protection against maximal electroshock-induced convulsion at 10 mg/kg, po administered 60 mins prior to application of shock via corneal electrodes relative to control; type: functional
Brain [7] = experiment: Fraction unbound in Sprague-Dawley rat brain at 30 mg/kg, sc administered at 30 mins by LC-MS/MS analysis; type: ADME, organism-based; details: in vivo, 0.5 h
[8] = Ratio of free drug level in plasma to brain in Sprague-Dawley rat at 10 mg/kg, sc administration at 30 mins; type: ADME, organism-based; details: in vivo, 0.5 h
Rattus norvegicus [9] = experiment: Anticonvulsant activity in Sprague-Dawley rat assessed as protection against maximal electroshock-induced convulsion at 30 mg/kg, po administered 60 mins prior to application of shock via corneal electrodes relative to control; type: functional
Plasma [10] = experiment: Unbound plasma concentration in Sprague-Dawley rat at 30 mg/kg, po administered at 60 mins by LC-MS/MS analysis; type: ADME, organism-based; details: in vivo, 1 h
[11] = biological target: Potassium voltage-gated channel subfamily KQT member 2/member 3 (Rattus norvegicus) (UniProt O88943+O88944); experiment: Activation of rat Kv7.2/7.3 expressed in CHOK1 cells assessed as increase in current amplitude relative to control; type: cell-based; details: CHO-K1
[12] = Ratio of free drug level in plasma to brain in Sprague-Dawley rat at 3 mg/kg, po administration at 60 mins; type: ADME, organism-based; details: in vivo, 1 h
[13] = biological target: Voltage-gated potassium channel KCNQ3/KCNQ5 (Homo sapiens, UniProt O43525+Q9NR82); experiment: Activation of human Kv7.3/7.5 expressed in CHOK1 cells assessed as increase in current amplitude relative to control; type: cell-based; details: CHO-K1
[14] = biological target: Voltage-gated potassium channel, KQT; KCNQ2(Kv7.2)/KCNQ3(Kv7.3) (Homo sapiens, UniProt O43525+O43526); experiment: (§1) Activation of human Kv7.2/7.3 expressed in CHOK1 cells; type: cell-based, CHO-K1
Sequence of Voltage-gated potassium channel, KQT; KCNQ2(Kv7.2)/KCNQ3(Kv7.3) (O43526 whole entry): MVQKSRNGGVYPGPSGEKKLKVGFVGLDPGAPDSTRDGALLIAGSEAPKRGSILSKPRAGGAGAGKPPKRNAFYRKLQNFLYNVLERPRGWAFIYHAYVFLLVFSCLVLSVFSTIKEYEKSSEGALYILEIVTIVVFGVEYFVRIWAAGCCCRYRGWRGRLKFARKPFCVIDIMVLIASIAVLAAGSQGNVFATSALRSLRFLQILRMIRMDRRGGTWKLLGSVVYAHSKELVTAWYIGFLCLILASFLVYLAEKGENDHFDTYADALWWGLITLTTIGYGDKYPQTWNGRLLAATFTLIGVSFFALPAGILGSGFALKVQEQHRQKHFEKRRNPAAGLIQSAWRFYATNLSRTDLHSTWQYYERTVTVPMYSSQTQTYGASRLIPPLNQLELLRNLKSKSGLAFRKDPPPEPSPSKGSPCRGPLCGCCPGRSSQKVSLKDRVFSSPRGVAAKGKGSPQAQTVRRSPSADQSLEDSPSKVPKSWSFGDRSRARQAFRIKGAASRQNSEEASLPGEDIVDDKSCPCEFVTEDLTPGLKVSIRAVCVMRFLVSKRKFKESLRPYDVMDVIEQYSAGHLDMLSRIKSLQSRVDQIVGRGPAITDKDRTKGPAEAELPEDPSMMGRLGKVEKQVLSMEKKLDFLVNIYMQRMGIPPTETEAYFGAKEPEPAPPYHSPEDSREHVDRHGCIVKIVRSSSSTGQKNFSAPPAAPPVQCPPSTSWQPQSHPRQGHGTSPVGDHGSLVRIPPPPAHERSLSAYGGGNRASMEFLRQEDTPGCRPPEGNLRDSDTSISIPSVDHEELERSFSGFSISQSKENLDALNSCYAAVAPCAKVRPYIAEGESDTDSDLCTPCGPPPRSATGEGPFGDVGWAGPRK
Sequence of Voltage-gated potassium channel, KQT; KCNQ2(Kv7.2)/KCNQ3(Kv7.3) (O43525 whole entry): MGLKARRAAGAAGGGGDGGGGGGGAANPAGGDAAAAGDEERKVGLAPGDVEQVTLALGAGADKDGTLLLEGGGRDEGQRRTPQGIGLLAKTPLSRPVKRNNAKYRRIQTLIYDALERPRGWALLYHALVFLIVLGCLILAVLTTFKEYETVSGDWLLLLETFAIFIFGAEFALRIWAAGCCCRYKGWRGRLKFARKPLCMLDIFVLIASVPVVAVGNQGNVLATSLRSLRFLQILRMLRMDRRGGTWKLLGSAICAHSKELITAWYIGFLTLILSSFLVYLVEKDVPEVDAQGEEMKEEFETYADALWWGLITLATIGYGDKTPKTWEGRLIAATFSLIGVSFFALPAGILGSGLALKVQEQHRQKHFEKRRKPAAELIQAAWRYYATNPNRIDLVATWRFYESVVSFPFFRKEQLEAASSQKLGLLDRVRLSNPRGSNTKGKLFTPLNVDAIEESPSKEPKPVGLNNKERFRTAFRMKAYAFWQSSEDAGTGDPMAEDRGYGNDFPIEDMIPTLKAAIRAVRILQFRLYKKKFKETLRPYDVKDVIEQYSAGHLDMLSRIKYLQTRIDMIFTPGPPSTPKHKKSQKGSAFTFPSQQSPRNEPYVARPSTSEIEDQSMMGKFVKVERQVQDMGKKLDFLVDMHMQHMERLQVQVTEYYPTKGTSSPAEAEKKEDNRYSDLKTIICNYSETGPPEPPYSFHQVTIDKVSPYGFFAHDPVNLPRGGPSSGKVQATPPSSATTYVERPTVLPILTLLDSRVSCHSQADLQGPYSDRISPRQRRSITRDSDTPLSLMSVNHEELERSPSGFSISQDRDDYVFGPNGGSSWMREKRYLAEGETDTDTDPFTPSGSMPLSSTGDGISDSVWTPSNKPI

[15] = biological target: T1, Voltage-gated potassium channel, KQT; KCNQ2(Kv7.2)/KCNQ3(Kv7.3) (Homo sapiens) (UniProt O43526+O43525); experiment: as §1; type: cell-based; details: CHO-K1
Brain [16] = experiment: Fraction unbound in Sprague-Dawley rat brain at 3 mg/kg, po administered at 60 mins by LC-MS/MS analysis; type: ADME, organism-based; details: in vivo, 1 h
[17] = biological target: Voltage-gated potassium channel, IKs; KCNQ1(Kv7.1)/KCNE1(MinK) (Homo sapiens, UniProt P51787+P15382); experiment: Activation of human Kv7.1/KCNE1 expressed in CHOK1 cells assessed as increase in current amplitude relative to control; type: cell-based; details: cho-k1
Sequence of Voltage-gated potassium channel, IKs; KCNQ1(Kv7.1)/KCNE1(MinK) (P51787 whole entry): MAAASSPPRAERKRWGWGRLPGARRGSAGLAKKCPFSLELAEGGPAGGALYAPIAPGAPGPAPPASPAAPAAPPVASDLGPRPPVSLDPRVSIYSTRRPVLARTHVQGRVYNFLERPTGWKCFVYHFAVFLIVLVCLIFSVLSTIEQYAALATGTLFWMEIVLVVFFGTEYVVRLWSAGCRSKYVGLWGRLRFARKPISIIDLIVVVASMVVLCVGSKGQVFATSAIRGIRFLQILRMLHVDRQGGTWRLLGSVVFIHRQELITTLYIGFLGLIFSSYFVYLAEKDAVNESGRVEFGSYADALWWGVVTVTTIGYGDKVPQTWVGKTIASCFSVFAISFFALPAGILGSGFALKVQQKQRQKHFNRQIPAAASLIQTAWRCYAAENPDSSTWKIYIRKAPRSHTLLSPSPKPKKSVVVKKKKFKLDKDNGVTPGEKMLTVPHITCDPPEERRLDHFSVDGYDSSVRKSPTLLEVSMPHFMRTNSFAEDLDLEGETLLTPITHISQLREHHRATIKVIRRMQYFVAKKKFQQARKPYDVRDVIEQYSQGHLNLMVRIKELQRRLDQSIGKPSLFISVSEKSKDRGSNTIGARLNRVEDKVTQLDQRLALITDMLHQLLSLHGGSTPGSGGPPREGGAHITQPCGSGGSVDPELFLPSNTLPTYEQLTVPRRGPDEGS

[18] = biological target: T1, Voltage-gated potassium channel, KQT; KCNQ2(Kv7.2)/KCNQ3(Kv7.3) (Homo sapiens); experiment: Activation of human Kv7.2/7.3 expressed in CHOK1 cells assessed as increase in current amplitude relative to control; type: cell-based; details: CHO-K1
[19] = biological target: T2, Potassium voltage-gated channel subfamily KQT member 4 (Homo sapiens, UniProt P56696); experiment: Activation of human Kv7.4 expressed in CHOK1 cells; type: cell-based, CHO-K1
T2 sequence (P56696 whole entry): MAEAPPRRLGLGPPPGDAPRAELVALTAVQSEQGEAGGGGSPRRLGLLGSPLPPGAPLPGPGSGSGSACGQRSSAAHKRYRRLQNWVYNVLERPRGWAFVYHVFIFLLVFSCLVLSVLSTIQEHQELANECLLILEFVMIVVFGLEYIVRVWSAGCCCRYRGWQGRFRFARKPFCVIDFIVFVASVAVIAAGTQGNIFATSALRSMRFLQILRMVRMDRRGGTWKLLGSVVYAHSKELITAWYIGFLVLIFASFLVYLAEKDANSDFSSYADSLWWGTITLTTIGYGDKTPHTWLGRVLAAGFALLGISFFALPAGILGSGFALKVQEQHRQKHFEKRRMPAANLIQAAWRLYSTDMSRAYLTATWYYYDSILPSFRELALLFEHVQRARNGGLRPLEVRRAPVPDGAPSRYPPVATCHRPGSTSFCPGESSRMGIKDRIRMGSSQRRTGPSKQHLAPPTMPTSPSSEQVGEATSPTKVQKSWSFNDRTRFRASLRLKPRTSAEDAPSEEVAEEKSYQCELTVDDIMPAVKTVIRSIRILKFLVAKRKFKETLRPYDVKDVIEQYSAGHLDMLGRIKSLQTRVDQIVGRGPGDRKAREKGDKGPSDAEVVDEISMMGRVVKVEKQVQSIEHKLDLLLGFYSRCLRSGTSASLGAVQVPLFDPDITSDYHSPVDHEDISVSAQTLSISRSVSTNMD

CHO-K1 = experiment: Activation of rat Kv7.3/7.5 expressed in CHOK1 cells assessed as increase in current amplitude relative to control; type: cell-based
Plasma [20] = experiment: Unbound plasma concentration in Sprague-Dawley rat at 1 mg/kg, po administered at 60 mins by LC-MS/MS analysis; type: ADME, organism-based; details: in vivo, 1 h
Rattus norvegicus [21] = experiment: Anticonvulsant activity in po dosed Sprague-Dawley rat assessed as protection against maximal electroshock-induced convulsion administered 60 mins prior to application of shock via corneal electrodes; type: functional, organism-based

Drug uptake(free) (Brain [2]): 6 nM | Cp(f) (Plasma [3]): 58 nM | Drug uptake(free) (Brain [4]): 274 nM | Ratio [5]: 0.37 | Drug uptake(free) (Brain [7]): 167 nM | Ratio [8]: 0.59 | Cp(f) (Plasma [10]): 572 nM | Activity [11]: 237% | Ratio [12]: 0.39 | Activity [13]: 246% | EC50 [14]: 334 nM | max activation [15]: 147% | Drug uptake(free) (Brain [16]): 43 nM | Activity [17]: 84% | Activity [18]: 265% | EC50 [19]: 625 nM | Cp(f) (Plasma [20]): 15 nM
Structure (SMILES): COc1nc(N2CCC(OC)CC2)nc(OC)c1NC(=O)CC(C)(C)C
Activity (Rattus norvegicus [1]): 100% | Activity (Rattus norvegicus [6]): 100% | Activity (Rattus norvegicus [9]): 100% | Activity (CHO-K1): 207% | Activity (Rattus norvegicus [21]): Dose-dependent effect
